The subject of the experiment is Human cervical cancer cells (HeLa S3). Kind of experiment: Effect by combined use of drugs in cells (with docetaxel), WST-8 method. Format: cell-based. The following applies: HeLa S3, three days; for inhibition at 0.3 µM: compound 300 nM alone. As for the experimental part:
Fetal calf serum (FCS) was purchased from Moregate Biotech, DMEM medium from Invitrogen Corp., docetaxel (tradename: Taxere) from Sigma-Aldrich, Inc., and WST-8 from Kishida Chemical Co., Ltd.
Human cervical cancer cells (HeLa S3) were obtained from the American Type Culture Collection (ATCC).
Cells were suspended in a DMEM medium containing 10% FCS, and the cell suspension was dispensed to two 96-well plastic plates at a rate of 750 cells/100 microliters per well. The plates were incubated overnight in 5% CO2-95% air at 37° C. A drug was subjected to graded dilution in dimethylsulfoxide and further diluted with DMSO or with a DMEM medium containing 10% FCS and also containing 0.6 nM docetaxel. Then, the dilutions were each dispensed to one of the plates on which cells had been disseminated, at a rate of 100 microliters per well. The final concentration of docetaxel at this stage was 0.3 nM. Also, the concentrations in the case of sole administration of the compound according to the invention were 0.003, 0.01, 0.03, 0.1, 0.3, 1, 3 and 10 μM. The plates were incubated for further three days in 5% CO2-95% air at 37° C. Cell growth after incubation was measured by the WST-8 method (H. Tominaga, et al., Anal. Commun., 36, 47-50 (1999)). Here, the WST-8 method refers to a method in which 20 microliters of a WST-8 reagent solution is added to each well, incubation is conducted at 37° C. for 60 minutes, the plate is stirred, and the amount of formazan produced is measured by a colorimetric method to determine the inhibitory rate of the drug. The growth inhibitory effects of docetaxel and of the compound according to the invention were determined, with the value obtained in sole treatment of DMSO being defined as 0%.
Background: Tetrazolium dyes change colour on reduction, which living cells bring about.

The mark [1] stands for this setting: Homo sapiens, HeLa S3, 72 h, read-out: Cell growth inhibitory effect by sole administration of the compound of Example (%).
Setting [2] is: compound 300 nM + docetaxel 0.3 nM.

Structures can show the parent of a compound that is named as a salt.

In the case of `Cl.O=C(c1cccc(Cl)c1F)N1CCC(O)(Cc2cccc(Nc3cc[nH]n3)n2)CC1` [Example 2, 1-(3-chloro-2-fluorobenzoyl)-4-((6-(1H-pyrazol-3-ylamino)pyridin-2-yl)methyl)piperidin-4-ol hydrochloride], the inhibition at 0.3 µM under setting [1] was found to be 23.9%. Moreover, the “Cell growth inhibitory effect by combined administration of docetaxel and the compound of Example (%)” value (shortened to “Cell growth inhibitory effect … (%)”) under setting [2] is listed as 90.2%.

Regarding `O=c1[nH]nc(C2(Cc3cccc(Nc4cc[nH]n4)n3)CCN(S(=O)(=O)c3ccccc3C(F)(F)F)CC2)o1` [Example 14, 5-(4-((6-(1H-pyrazol-3-ylamino)pyridin-2-yl)methyl)-1-((2-(trifluoromethyl)phenyl)sulfonyl)piperidin-4-yl)-1,3,4-oxadiazol-2(3H)-one trifluoroacetate], the inhibition at 0.3 µM under setting [1] came out at 3.3%. Further, the “Cell growth inhibitory effect … (%)” value under setting [2] was found to be 80.7%.

Take `O=c1[nH]nc(C2(Cc3cccc(Nc4cc[nH]n4)n3)CCN(C(c3cccc(C(F)(F)F)c3)C(F)(F)F)CC2)o1` (stereo not drawn) [Example 19, 5-(4-((6-(1H-pyrazol-3-ylamino)pyridin-2-yl)methyl)-1-(2,2,2-trifluoro-1-(3-(trifluoromethyl)phenyl)ethyl)piperidin-4-yl)-1,3,4-oxadiazol-2(3H)-one trifluoroacetate]: for the setting “Homo sapiens, HeLa S3, 72 h, compound 100 nM alone, read-out: Cell growth inhibitory effect by sole administration of the compound of Example (%)”, the inhibition at 0.1 µM came out at 7.6%. The “Cell growth inhibitory effect … (%)” value (compound 100 nM + docetaxel 0.3 nM) was found to be 86.0%.
